# According to patent publication US11174268B2, “Benzenesulfonamide compouds and their use as therapeutic agents” (Xenon Pharmaceuticals Inc., priority 2016, dated 2021):
# Counter-ions that a name gives are not always drawn. Like-named read-outs stand apart in the source and are kept apart here.
# Columns and labels:
# NaV1.6 = NaV1.6 (Homo sapiens (Human), UniProt Q9UQD0); test: Sodium Influx Assay (Flux), NaV1.6; type: cell-based; conditions: Trex HEK293 cells, ANG2 dye, inactivated state;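 note: Tetracycline-induced cells, compounds applied for one hour at room temperature with modulators holding channels open, IC50 from percent inhibition of sodium influx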
# NaV1.1 = NaV1.1 (Homo sapiens (Human), UniProt P35498); test: Sodium Influx Assay (Flux), NaV1.1; type: cell-based; conditions: Trex HEK293 cells, ANG2 dye, inactivated state;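 note: channels co-expressed with human β1 subunit and held open by modulators, cells exposed to compounds for one hour at room temperature, IC50 from percent inhibition of influx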
# NaV1.5 = NaV1.5 (Homo sapiens (Human), UniProt Q14524); test: Sodium Influx Assay (Flux), NaV1.5
# Chain of NaV1.5 (Q14524 other isoform, or with tags, fused parts or gaps): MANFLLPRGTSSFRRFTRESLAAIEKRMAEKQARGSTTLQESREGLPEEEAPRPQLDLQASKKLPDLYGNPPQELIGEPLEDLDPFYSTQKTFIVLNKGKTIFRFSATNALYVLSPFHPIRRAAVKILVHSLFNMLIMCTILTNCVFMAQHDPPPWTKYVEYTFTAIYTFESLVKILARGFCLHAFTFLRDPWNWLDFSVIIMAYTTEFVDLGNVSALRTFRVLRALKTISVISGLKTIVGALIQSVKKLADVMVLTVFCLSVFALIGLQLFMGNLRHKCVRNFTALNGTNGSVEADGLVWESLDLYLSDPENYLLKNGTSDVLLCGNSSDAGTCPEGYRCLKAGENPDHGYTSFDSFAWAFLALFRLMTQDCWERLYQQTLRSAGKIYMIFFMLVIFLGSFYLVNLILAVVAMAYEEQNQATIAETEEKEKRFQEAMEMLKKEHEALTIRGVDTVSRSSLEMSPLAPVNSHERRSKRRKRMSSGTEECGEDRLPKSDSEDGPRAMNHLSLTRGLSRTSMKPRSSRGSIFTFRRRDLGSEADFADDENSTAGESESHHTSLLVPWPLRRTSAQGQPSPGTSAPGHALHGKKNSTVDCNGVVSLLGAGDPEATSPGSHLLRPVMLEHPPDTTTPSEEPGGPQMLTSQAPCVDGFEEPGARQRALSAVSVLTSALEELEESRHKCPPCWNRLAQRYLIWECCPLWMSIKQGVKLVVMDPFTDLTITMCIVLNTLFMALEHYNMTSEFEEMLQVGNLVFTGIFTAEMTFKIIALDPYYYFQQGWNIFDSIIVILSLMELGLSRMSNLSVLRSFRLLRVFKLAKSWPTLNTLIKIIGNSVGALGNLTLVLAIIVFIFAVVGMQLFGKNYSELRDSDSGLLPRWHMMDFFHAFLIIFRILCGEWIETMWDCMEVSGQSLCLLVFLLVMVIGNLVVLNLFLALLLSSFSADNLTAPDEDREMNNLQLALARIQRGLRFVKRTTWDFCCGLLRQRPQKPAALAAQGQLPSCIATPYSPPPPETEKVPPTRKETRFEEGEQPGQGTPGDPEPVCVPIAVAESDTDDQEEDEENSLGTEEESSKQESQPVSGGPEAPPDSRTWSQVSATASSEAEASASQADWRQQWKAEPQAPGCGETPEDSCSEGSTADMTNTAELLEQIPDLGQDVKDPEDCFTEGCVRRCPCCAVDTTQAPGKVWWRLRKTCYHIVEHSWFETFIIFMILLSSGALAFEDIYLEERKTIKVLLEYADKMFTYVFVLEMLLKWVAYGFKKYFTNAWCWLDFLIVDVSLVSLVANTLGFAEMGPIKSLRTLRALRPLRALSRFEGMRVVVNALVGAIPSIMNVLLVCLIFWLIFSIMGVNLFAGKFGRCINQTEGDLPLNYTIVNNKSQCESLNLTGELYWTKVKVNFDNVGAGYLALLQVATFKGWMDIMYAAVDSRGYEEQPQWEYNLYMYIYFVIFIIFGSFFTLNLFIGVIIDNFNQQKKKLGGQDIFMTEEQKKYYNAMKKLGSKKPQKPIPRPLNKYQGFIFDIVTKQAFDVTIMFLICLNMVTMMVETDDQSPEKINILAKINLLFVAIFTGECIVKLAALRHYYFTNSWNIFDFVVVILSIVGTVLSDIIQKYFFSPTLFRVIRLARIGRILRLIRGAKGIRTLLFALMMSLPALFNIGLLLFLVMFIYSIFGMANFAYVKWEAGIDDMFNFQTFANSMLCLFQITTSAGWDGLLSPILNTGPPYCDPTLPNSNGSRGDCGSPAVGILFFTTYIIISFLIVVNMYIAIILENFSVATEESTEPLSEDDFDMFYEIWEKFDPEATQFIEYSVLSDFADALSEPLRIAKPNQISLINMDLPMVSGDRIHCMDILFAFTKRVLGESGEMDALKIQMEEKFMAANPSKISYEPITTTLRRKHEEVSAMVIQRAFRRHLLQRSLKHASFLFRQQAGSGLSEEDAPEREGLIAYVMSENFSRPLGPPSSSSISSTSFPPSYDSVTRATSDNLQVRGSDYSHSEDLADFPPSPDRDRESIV
# [1] = read-out: Flux NaV1.5 IC50, Trex HEK293 cells, ANG2 dye, inactivated state
SMILES,IC50 (NaV1.6) [µM],IC50 (NaV1.1) [µM],IC50 (NaV1.5; [1]) [µM],IC50 (NaV1.5) [µM]
"Cc1cccc(Cl)c1CNc1cc(F)c(S(=O)(=O)Nc2cscn2)cc1Cl [Example 226, 5-chloro-4-((2-chloro-6-methylbenzyl)amino)-2-fluoro-N-(thiazol-4-yl)benzenesulfonamide]",8.19,19.9,11.3,
"COCc1ccc(F)c([C@H](C)Nc2cc(F)c(S(=O)(=O)Nc3cscn3)c(F)c2)c1 [Example 228, (S)-2,6-difluoro-4-((1-(2-fluoro-5-(methoxymethyl)phenyl)ethyl)amino)-N-(thiazol-4-yl)benzenesulfonamide]",1.94,13.2,27.5,
"O=S(=O)(Nc1cscn1)c1c(F)cc(NC2(c3ccccc3)CC2)cc1F [Example 231, 2,6-difluoro-4-[(1-phenylcyclopropyl)amino]-N-thiazol-4-yl-benzenesulfonamide]",4.21,17.5,30,
"C[C@H](Oc1cc(F)c(S(=O)(=O)Nc2cscn2)c(F)c1)c1ccccc1F [Example 232, (S)-2,6-difluoro-4-(1-(2-fluorophenyl)ethoxy)-N-(thiazol-4-yl)benzenesulfonamide]",1.75,21.2,11.2,
"C[C@H](Nc1cc(F)c(S(=O)(=O)Nc2cscn2)c(F)c1)c1cc(C(F)F)ccc1F [Example 233, (S)-4-((1-(5-(difluoromethyl)-2-fluorophenyl)ethyl)amino)-2,6-difluoro-N-(thiazol-4-yl)benzenesulfonamide]",0.787,3.08,12.4,
"C[C@H](Nc1ccc(S(=O)(=O)Nc2cscn2)cc1C#N)c1ccccc1F [Example 239, (S)-3-cyano-4-((1-(2-fluorophenyl)ethyl)amino)-N-(thiazol-4-yl)benzenesulfonamide]",1.65,27,28.9,
"C[C@H](Nc1cc(F)c(S(=O)(=O)Nc2ccon2)c(F)c1)c1cc(F)ccc1F [Example 240, (S)-4-((1-(2,5-difluorophenyl)ethyl)amino)-2,6-difluoro-N-(isoxazol-3-yl)benzenesulfonamide]",3.17,30,30,
"O=S(=O)(Nc1ccncn1)c1cc(Cl)c(NC2(c3cc(F)ccc3F)CC2)cc1F [Example 241, 5-chloro-4-((1-(2,5-difluorophenyl)cyclopropyl)amino)-2-fluoro-N-(pyrimidin-4-yl)benzenesulfonamide]",2.36,26.8,30,
"O=S(=O)(Nc1ccncn1)c1cc(Cl)c(NC2(c3ccccc3F)CC2)cc1F [Example 242, 5-chloro-2-fluoro-4-((1-(2-fluorophenyl)cyclopropyl)amino)-N-(pyrimidin-4-yl)benzenesulfonamide]",1.95,30,30,
"Cc1cc(NS(=O)(=O)c2cc(Cl)c(N[C@@H](C)c3ccccc3Cl)cc2F)ncn1 [Example 244, (S)-5-chloro-4-((1-(2-chlorophenyl)ethyl)amino)-2-fluoro-N-(6-methylpyrimidin-4-yl)benzenesulfonamide]",4.28,30,22.2,
"C[C@H](Nc1cc(F)c(S(=O)(=O)Nc2ccnc(C(F)(F)F)n2)cc1Cl)c1ccccc1Cl [Example 245, (S)-5-chloro-4-((1-(2-chlorophenyl)ethyl)amino)-2-fluoro-N-(2-(trifluoromethyl)pyrimidin-4-yl)benzenesulfonamide]",5.38,10.5,6.55,
"O=S(=O)(Nc1cscn1)c1cc(Cl)c(NCc2c(F)cccc2CN2CCOCC2)cc1F [Example 250, 5-chloro-2-fluoro-4-((2-fluoro-6-(morpholinomethyl)benzyl)amino)-N-(thiazol-4-yl)benzenesulfonamide]",9.06,23.6,30,
"O=S(=O)(Nc1cscn1)c1cc(Cl)c(NCc2c(F)cccc2CN2CCC(F)(F)CC2)cc1F [Example 251, 5-chloro-4-((2-((4,4-difluoropiperidin-1-yl)methyl)-6-fluorobenzyl)amino)-2-fluoro-N-(thiazol-4-yl)benzenesulfonamide]",3.71,8.68,3.35,
"O=S(=O)(Nc1cscn1)c1c(F)cc(NCc2c(F)cccc2CN2CC3(CCC3)C2)cc1F [Example 252, 4-((2-((2-azaspiro[3.3]heptan-2-yl)methyl)-6-fluorobenzyl)amino)-2,6-difluoro-N-(thiazol-4-yl)benzenesulfonamide formate]",0.036,9.96,12.6,
"O=S(=O)(Nc1ccon1)c1cc(Cl)c(NCc2ccccc2CN2CCC2)cc1F [Example 258, 4-((2-(azetidin-1-ylmethyl)benzyl)amino)-5-chloro-2-fluoro-N-(isoxazol-3-yl)benzenesulfonamide]",3.69,30,30,

# Second part, led by results:
IC50 (NaV1.6) [µM],IC50 (NaV1.1) [µM],SMILES,IC50 (NaV1.5; [1]) [µM],IC50 (NaV1.5) [µM]
1.93,3.99,"CC[C@H](Nc1cc(F)c(S(=O)(=O)Nc2cscn2)cc1Cl)c1ccccc1Cl [Example 222, (S)-5-chloro-4-((1-(2-chlorophenyl)propyl)amino)-2-fluoro-N-(thiazol-4-yl)benzenesulfonamide]",8.35,
4.23,3.74,"C[C@H](Nc1cc(F)c(S(=O)(=O)Nc2cscn2)cc1Cl)c1cc(F)cc(F)c1 [Example 223, (S)-5-chloro-4-((1-(3,5-difluorophenyl)ethyl)amino)-2-fluoro-N-(thiazol-4-yl)benzenesulfonamide]",,12.2
5.07,7.76,"O=S(=O)(Nc1cscn1)c1cc(Cl)c(NC2(c3ccc(F)cc3F)CC2)cc1F [Example 224, 5-chloro-4-((1-(2,4-difluorophenyl)cyclopropyl)amino)-2-fluoro-N-(thiazol-4-yl)benzenesulfonamide]",30,
1.25,8.78,"C[C@H](Nc1cc(F)c(S(=O)(=O)Nc2cscn2)cc1Cl)c1cc(CC(F)F)ccc1F [Example 227, (S)-5-chloro-4-((1-(5-(2,2-difluoroethyl)-2-fluorophenyl)ethyl)amino)-2-fluoro-N-(thiazol-4-yl)benzenesulfonamide]",8.6,
0.961,30,"C[C@H](Nc1cc(F)c(S(=O)(=O)Nc2cscn2)cc1Cl)c1cc(C#N)ccc1F [Example 229, (S)-5-chloro-4-((1-(5-cyano-2-fluorophenyl)ethyl)amino)-2-fluoro-N-(thiazol-4-yl)benzenesulfonamide]",30,
0.669,4.62,"C[C@H](Nc1cc(F)c(S(=O)(=O)Nc2cscn2)cc1Cl)c1cc(O)ccc1F [Example 234, (S)-5-chloro-2-fluoro-4-((1-(2-fluoro-5-hydroxyphenyl)ethyl)amino)-N-(thiazol-4-yl)benzenesulfonamide]",8.67,
3.02,22.4,"C[C@H](Nc1cc(F)c(S(=O)(=O)Nc2cscn2)cc1Cl)c1cc(OC2COC2)ccc1F [Example 235, (S)-5-chloro-2-fluoro-4-((1-(2-fluoro-5-(oxetan-3-yloxy)phenyl)ethyl)amino)-N-(thiazol-4-yl)benzenesulfonamide]",30,
3.02,30,"C[C@H](Nc1cc(F)c(S(=O)(=O)Nc2cscn2)cc1Cl)c1cc(OCC2COC2)ccc1F [Example 236, (S)-5-chloro-2-fluoro-4-((1-(2-fluoro-5-(oxetan-3-ylmethoxy)phenyl)ethyl)amino)-N-(thiazol-4-yl)benzenesulfonamide]",30,
3.54,12.5,"C[C@H](Nc1cc(F)c(S(=O)(=O)Nc2cscn2)cc1Cl)c1cc(OCC2(C)COC2)ccc1F [Example 237, (S)-5-chloro-2-fluoro-4-((1-(2-fluoro-5-((3-methyloxetan-3-yl)methoxy)phenyl)ethyl)amino)-N-(thiazol-4-yl)benzenesulfonamide]",30,
0.431,21.4,"COC1CN(Cc2cccc(F)c2CNc2cc(F)c(S(=O)(=O)Nc3cscn3)cc2Cl)C1 [Example 248, 5-chloro-2-fluoro-4-((2-fluoro-6-((3-methoxyazetidin-1-yl)methyl)benzyl)amino)-N-(thiazol-4-yl)benzenesulfonamide 2,2,2-trifluoroacetate]",26.5,
0.163,30,"CN(C)Cc1cccc(F)c1CNc1cc(F)c(S(=O)(=O)Nc2cscn2)cc1Cl [Example 249, 5-chloro-4-((2-((dimethylamino)methyl)-6-fluorobenzyl)amino)-2-fluoro-N-(thiazol-4-yl)benzenesulfonamide 2,2,2-trifluoroacetate]",30,
2.1,20,"C[C@H](Nc1cc(F)c(S(=O)(=O)Nc2cscn2)cc1Cl)c1cccc(CN(C)C)c1 [Example 253, (S)-5-chloro-4-((1-(3-((dimethylamino)methyl)phenyl)ethyl)amino)-2-fluoro-N-(thiazol-4-yl)benzenesulfonamide formate]",13.1,
9.44,14.1,"C[C@@H](Nc1cc(F)c(S(=O)(=O)Nc2cscn2)cc1Cl)c1cccc(CN(C)C)c1 [Example 254, (R)-5-chloro-4-((1-(3-((dimethylamino)methyl)phenyl)ethyl)amino)-2-fluoro-N-(thiazol-4-yl)benzenesulfonamide formate]",3.62,
1.22,8.82,"C[C@H](Nc1cc(F)c(S(=O)(=O)Nc2cscn2)cc1Cl)c1cc(CN2CCCCC2)ccc1F [Example 256, (S)-5-chloro-2-fluoro-4-((1-(2-fluoro-5-(piperidin-1-ylmethyl)phenyl)ethyl)amino)-N-(thiazol-4-yl)benzenesulfonamide formate]",6.97,
